In test [1] the test system is Mda-mb-231. Put plainly: In vitro antiproliferative assay (CCK-8). The conditions noted are these: Homo sapiens, MDA-MB-231, 48 h, read-out: IC50 ± SD Mda-mb-231.
Method: (§1) Hela and MDA-MB-132 cells were grown in DMEM (Gibco) containing 10% FBS and 1% double antibody (penicillin 100 U/mL, streptomycin 100 μg/mL, Solarbio). […] All cell lines were purchased from the Xiangya Cell Bank, Central South University, Changsha, China, and incubated at 37 °C with 5% CO2 in a humidified atmosphere. […] Cytotoxicity assay was assessed using CCK-8 methods. The cells were seeded in a 96-well plate (2 × 10^3–3 × 10^3 cells/well), the 96-well plate was incubated at 37 °C with 5% CO2 in a humidified atmosphere, and the cells were grown in a monolayer; the original culture was discarded. A total of 100 μL of drug-containing medium with a specific concentration gradient was added and then cultivated for 48 h; 10 μL/well of CCK-8 solution was added, put in an incubator, and incubated for 1 h and read with a multi-function microplate reader at a wavelength of 450 nm. The inhibition rate was calculated, and the IC50 results were calculated by GraphPad Prism 7 software. The experiment was repeated three times.
The test system of test [2] is Hela. In words: In vitro antiproliferative assay (CCK-8). Type of test: cell-based, human. The conditions noted are these: Homo sapiens, HeLa; CCK-8, 48 h, mean ± SD. The source says: The experiment was repeated three times.
Test [3] has as its system Mcf-7. In words: In vitro antiproliferative assay (CCK-8). The conditions noted are these: Homo sapiens, MCF7, 48 h, read-out: IC50 ± SD Mcf-7.
Method: as §1
The subject of test [4] is Hepg2. Put plainly: In vitro antiproliferative assay (CCK-8). The conditions noted are these: Homo sapiens, HepG2, 48 h, read-out: IC50 ± SD Hepg2.
Method: as §1
In test [5] the test system is four cancer-cell lines. Put plainly: In vitro antiproliferative assay (CCK-8), cell line not given. The conditions noted are these: Homo sapiens, read-out: IC50 (antiproliferative activity).
The subject of test [6] is tubulin. Put plainly: Tubulin polymerization assay in vitro. The conditions noted are these: reference compound, concentration not given. Type of test: biochemical. As for the experimental part: We used an HTS-Tubulin Polymerization Assay Kit (BK004P, Cytoskeleton, USA) to assess the inhibitory effect of compounds on tubulin polymerization. Tubulin solution was prepared, and the compound solution and paclitaxel solution were tested according to the instructions of the kit. General tubulin buffer, paclitaxel solution, and 10× test compound solution were added to a 96-well plate (10 μL/well) and incubated at 37 °C for two minutes. A total of 100 μL of tubulin solution was pipetted into the corresponding wells. The plate was immediately placed on a multi-function microplate reader at 37 °C, and the continuous kinetic values were recorded.
Figure 7 The effect of compound 20 and compound 27 on in vitro tubulin polymerization was tested. Polymerization of purified tubulin was performed in a cell-free assay. Tubulin protein was incubated at 37 °C in a reaction buffer exposed to vehicle control or test compounds at the indicated concentrations. Absorbance at 340 nm was monitored at 37 °C every 30 s for 1 h.

Test [7] has as its system Hela cells. Put plainly: Cell-cycle assay (flow cytometry, propidium iodide). The conditions noted are these: 24 h. Type of test: cell-based, human. As to the method: Then, the preset drug concentration was added and incubated for 24 h. Cells were collected by centrifugation and were fixed overnight with pre-cooled ethanol (70%) and washed twice with buffer, propidium-iodide staining solution was added (0.5 mL/well), and they were incubated at 37 °C for 30 min in the dark for flow detection.

In test [8] the test system is Hela cells. Put plainly: Annexin V-FITC/PI double-staining cell-apoptosis assay. Format: cell-based, human. The conditions noted are these: 24 h, in words. As for the experimental part: Then, the preset drug concentration was added and incubated for 24 h. Cells were collected by centrifugation, resuspended in buffer, and then stained by adding Annexin V-FITC (5 μL) and PI Staining Solution (5 μL) and incubated at room temperature for 10 min. The samples were detected by flow cytometry within 1 h after staining. Flow cytometer (Beckman Coulter Cytofex) was used for subsequent detection, and the data were processed with FlowJo software.

For test [9], the target named is recombinant human Cdc20 protein (Homo sapiens, UniProt Q12834). In words: Surface plasmon resonance (SPR) assay. Format: binding. The conditions noted are these: one-to-one model. As for the experimental part: Surface plasmon resonance (SPR) analysis can measure the interaction process between various biomolecules, such as polypeptides, proteins, oligonucleotides, and oligosaccharides, as well as viruses, bacteria, cells, and small molecular compounds. First, we installed the COOH chip according to the standard operating procedure of the OpenSPRTM instrument and started running it at the maximum flow rate (150 μL/min). The detection buffer was PBS, and after reaching the signal baseline, 200 μL of isopropanol were loaded and the air was removed by running for 10 s. After reaching baseline, the sample loop was flushed with buffer and evacuated with air, and after the signal reached baseline, the buffer flow rate was adjusted to 20 μL/min. A total of 200 μL of EDC/NHS (1:1) solution (20 μL/min, 4 min), 200 μL EDC/NHS (1:1) solution (20 μL/min, 4 min), and 200 μL recombinant human Cdc20 protein buffer was loaded and run for 4 min (20 μL/min), and the sample loop was rinsed with buffer and drained with null air. A total of 200 μL of blocking solution was loaded (20 μL/min, 4 min), and the sample loop was flushed with buffer and evacuated with air. After the baseline was stable, the analyte was diluted with buffer and loaded at 20 μL/min. The binding time of the analyte and the ligand was 240 s, and the natural dissociation time was 480 s. The analysis software used for the experimental results was TraceDrawer (Ridgeview Instruments ab, Sweden), and the analysis method was the one-to-one analysis model.
Chain of recombinant human Cdc20 protein (Q12834 whole entry): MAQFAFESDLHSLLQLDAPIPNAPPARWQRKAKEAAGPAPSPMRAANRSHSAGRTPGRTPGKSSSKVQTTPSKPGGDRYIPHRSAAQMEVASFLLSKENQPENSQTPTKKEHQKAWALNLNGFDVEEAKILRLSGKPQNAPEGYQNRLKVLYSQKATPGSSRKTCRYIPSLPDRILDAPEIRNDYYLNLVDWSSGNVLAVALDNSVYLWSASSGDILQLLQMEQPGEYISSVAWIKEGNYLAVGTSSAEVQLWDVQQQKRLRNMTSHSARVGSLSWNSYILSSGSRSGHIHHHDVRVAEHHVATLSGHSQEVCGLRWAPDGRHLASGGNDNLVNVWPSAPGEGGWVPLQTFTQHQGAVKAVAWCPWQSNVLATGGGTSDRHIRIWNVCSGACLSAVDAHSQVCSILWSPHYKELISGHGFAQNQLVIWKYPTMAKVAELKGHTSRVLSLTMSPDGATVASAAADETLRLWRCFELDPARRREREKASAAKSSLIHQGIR
Molecules were tested in a dilution series starting at 500 μM. The analyte was diluted with buffer and loaded at 20 μL/min. The binding time of the analyte and the ligand was 240 s, and the natural dissociation time was 480 s. The analysis software used for the experimental results was TraceDrawer (Ridgeview Instruments AB, Sweden), and the analysis method was the one-to-one analysis model.
(Surface plasmon resonance follows binding to a sensor surface in real time, without labels.)

Some results are limits rather than exact numbers.

As for `O=C(NC1CCCCC1)NC(Nc1ncccn1)C(Cl)(Cl)Cl` (stereo not shown) [Compound 3, 1-cyclohexyl-3-(2,2,2-trichloro-1-(pyrimidin-2-ylamino)ethyl)urea], the IC50 (commonly the point on the concentration scale where inhibition reaches its midpoint) was more than 100 µM in test [1]; more than 100 µM in test [2]; more than 100 µM in [3]; more than 100 µM in test [4]; more than 80 µM in [5].
With `Cc1ncc([N+](=O)[O-])n1CCNC(=O)NC(Nc1ncccn1)C(Cl)(Cl)Cl` (stereo not shown) [Compound 1, 1-(2-(2-methyl-5-nitro-1H-imidazol-1-yl)ethyl)-3-(2,2,2-trichloro-1-(pyrimidin-2-ylamino)ethyl)urea], the IC50 in [1] is more than 100 µM; in [2], more than 100 µM; in test [3] it was more than 100 µM; in [4], more than 100 µM; in test [5], more than 80 µM.
Take `CC(=O)O[C@H]1C(=O)[C@@]2(C)[C@H]([C@H](OC(=O)c3ccccc3)[C@]3(O)C[C@H](OC(=O)[C@H](O)[C@@H](NC(=O)c4ccccc4)c4ccccc4)C(C)=C1C3(C)C)[C@]1(OC(C)=O)CO[C@@H]1C[C@@H]2O` [paclitaxel, reference compound]: the “effect on microtubule polymerization” value in test [6] was “promote microtubule polymerization”.
As for `Cc1ncc([N+](=O)[O-])n1CCOC(=O)N[C@@H](Nc1ncccn1)C(Cl)(Cl)Cl` (racemic) [Apcin], the IC50 in [1] was more than 100 µM; in [2] it was 182 ± 12.5 µM; in [3], more than 100 µM; in test [4], more than 100 µM. Further, in test [7] (150μm), the “P4 gate (cells in the G2/M phase)” value is recorded as 34.87%. In [7] (in words), the “number of cells in the mitotic G2/M phase” value was “significant increase”. The apoptotic rates entry in test [8] is “increased in a concentration-dependent way”. Also, the Kd (usually the concentration at which binding is half-saturated) in test [9] (dissociation-equilibrium constant) was 236 µM. Moreover, in [9] (dissociation-rate constant), the “Kd (1/S)” value was 2.33 × 10^−2 1/S.
Consider `O=C(NC(Nc1ncccn1)C(Cl)(Cl)Cl)NS(=O)(=O)c1ccccc1` (stereo not shown) [Compound 6, N-((2,2,2-trichloro-1-(pyrimidin-2-ylamino)ethyl)carbamoyl)benzenesulfonamide], for which the IC50 is more than 100 µM in test [1]; more than 100 µM in test [2]; more than 100 µM in test [3]; more than 100 µM in test [4]; more than 80 µM in [5].

The values above are taken from article PMC9964651, “Discovery of Ureido-Based Apcin Analogues as Cdc20-specific Inhibitors against Cancer” (Pharmaceuticals, 2023).
